Source: ChEMBL document CHEMBL6115002, “Discovery of novel sitolactone derivative leading to PANoptosis and differentiation of acute myeloid leukemia cells” (Eur J Med Chem, 2025)
Calls of active or inactive are those of the source. No cut-off for these calls is given here.

Tests used:
[1] = Toxicity in Balb/c mouse implanted with mouse WEHI-3 cells assessed as separation between white and red pulp area in spleen at 100 to 200 mg/kg, po administered (4aR,6aS,7S,9aS,9bS)-2-(((S)-2-(hydroxymethyl)pyrrolidin-1-yl)methyl)-6a-methyl7 ((triisopropylsilyl)oxy)decahydrocyclopenta[f]chromen-3(2H)-one as prodrug once daily and measured after 15 days; type: organism-based; conditions: in vivo, 360 h, dose 100-200 mg/kg, time 15 day
Kasumi 1 = assay: Disruption of citrate metabolic pathway in human Kasumi 1 cells by KEGG enrichment analysis; type: functional, cell-based

Q: Which Activity [1] does the source give for `C=C1C[C@@H]2[C@@H](CC[C@]3(C)[C@@H](O[Si](C(C)C)(C(C)C)C(C)C)CC[C@@H]23)OC1=O` here?
A: Non-toxic

Q: And the Activity (Kasumi 1)?
A: Active
